# In patent publication US8551516B2, “Administration of non-oral androgenic steroids to women” (Actavis, Inc., priority 1999, dated 2013):
# Tests used:
# [1] = Example 1: serum hormone levels on the regimen; conditions: Example 1 regimen; for bioavailability: female, human, in vivo
# Procedure: The estrogen consisted of conjugated equine estrogen (Premarin® tablets) at a daily dose of 0.625 to 2.5 mg. […] The duration of coadministration was 12 weeks.
# [2] = system: sexual function, mood and well-being; assay: Example 1: 12-week coadministration of oral estrogen and transdermal testosterone, sexual function, mood and well-being; assay type: in vivo, human; conditions: transdermal patch 300 mcg/day twice weekly plus oral Premarin 0.625 to 2.5 mg daily; after 12 weeks; surgically menopausal women
# From the text: The duration of coadministration was 12 weeks.
# [3] = target: T1, sex hormone binding globulin (SHBG) (Homo sapiens, UniProt P04278); conditions: adapted from Dunn et al. 1981; human plasma; cited from earlier work
# T1 sequence (P04278 30-402): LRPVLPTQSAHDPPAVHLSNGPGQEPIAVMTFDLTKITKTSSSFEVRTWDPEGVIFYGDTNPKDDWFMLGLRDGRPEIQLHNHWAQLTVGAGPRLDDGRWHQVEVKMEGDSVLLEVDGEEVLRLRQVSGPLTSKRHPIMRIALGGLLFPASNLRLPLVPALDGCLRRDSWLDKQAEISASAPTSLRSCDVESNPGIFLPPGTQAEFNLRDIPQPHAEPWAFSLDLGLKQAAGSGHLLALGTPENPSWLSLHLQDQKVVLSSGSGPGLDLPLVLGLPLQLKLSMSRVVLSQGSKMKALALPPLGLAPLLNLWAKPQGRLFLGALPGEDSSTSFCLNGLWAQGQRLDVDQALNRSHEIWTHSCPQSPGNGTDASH
# [4] = Pharmacokinetic study of testosterone transdermal matrix patch in surgically menopausal women: total and free testosterone; assay type: in vivo, human; conditions: 300 mcg/day patch; for concentration at 3.5 day: female, human, serum, time-average change from baseline, mean±SEM
# Procedure: One group had received no estrogen replacement therapy (ERT) for at least one month, the second group was receiving transdermal estadiol (E2) at a dosage of 0.1 mg/day, and the third group was receiving oral conjugated equine estrogens (CEE) at a dosage of 1.25 mg/day. […] The resultant hormone data (mean±SEM) for the three groups of surgically menopausal women participating in the clinical study is summarized in Table 2 below.
# It should be noted that the normal range for SHBG levels is 36 to 185 nmol/L using the Endocrine Sciences assay.
# [5] = Predicted change in total testosterone, power-law regression of FIG. 1; conditions: for concentration at 3.5 day: human, serum, other: transdermal
# [6] = Estimated testosterone delivery rate for a given increase in free testosterone, power-law regression of FIG. 2; assay type: in vivo, human
# [7] = Change in FT 1 pg/mL, SHBG 50 nmol/L
# [8] = Change in FT 1 pg/mL, SHBG 84 nmol/L
# [9] = Change in FT 1 pg/mL, SHBG 100 nmol/L
# [10] = Change in FT 1 pg/mL, SHBG 200 nmol/L
# [11] = Change in FT 1 pg/mL, SHBG 400 nmol/L
# [12] = Change in FT 1 pg/mL, SHBG 600 nmol/L
# [13] = Change in FT 1 pg/mL, SHBG 700 nmol/L
# [14] = Change in FT 2.5 pg/mL, SHBG 50 nmol/L
# [15] = Change in FT 2.5 pg/mL, SHBG 84 nmol/L
# [16] = Change in FT 2.5 pg/mL, SHBG 100 nmol/L
# [17] = Change in FT 2.5 pg/mL, SHBG 200 nmol/L
# [18] = Change in FT 2.5 pg/mL, SHBG 400 nmol/L
# [19] = Change in FT 2.5 pg/mL, SHBG 600 nmol/L
# [20] = Change in FT 2.5 pg/mL, SHBG 700 nmol/L
# [21] = Change in FT 5 pg/mL, SHBG 50 nmol/L
# [22] = Change in FT 5 pg/mL, SHBG 84 nmol/L
# [23] = Change in FT 5 pg/mL, SHBG 100 nmol/L
# [24] = Change in FT 5 pg/mL, SHBG 200 nmol/L
# [25] = Change in FT 5 pg/mL, SHBG 400 nmol/L
# [26] = Change in FT 5 pg/mL, SHBG 600 nmol/L
# [27] = Change in FT 5 pg/mL, SHBG 700 nmol/L
# [28] = Change in FT 10 pg/mL, SHBG 50 nmol/L
# [29] = Change in FT 10 pg/mL, SHBG 84 nmol/L
# [30] = Change in FT 10 pg/mL, SHBG 100 nmol/L
# [31] = Change in FT 10 pg/mL, SHBG 200 nmol/L
# [32] = Change in FT 15 pg/mL, SHBG 50 nmol/L
# [33] = Change in FT 15 pg/mL, SHBG 84 nmol/L
# [34] = Change in FT 15 pg/mL, SHBG 100 nmol/L
# [35] = Change in FT 15 pg/mL, SHBG 200 nmol/L
# [36] = Change in FT 15 pg/mL, SHBG 400 nmol/L
# [37] = Change in FT 15 pg/mL, SHBG 600 nmol/L
# [38] = Change in FT 15 pg/mL, SHBG 700 nmol/L
smiles,measurement,setting,value
"C[C@]12CC[C@H]3[C@@H](CCC4=CC(=O)CC[C@@]43C)[C@@H]1CC[C@@H]2O [testosterone, (17)-17-Hydroxyandrost-4-en-3-one]",women with free testosterone level below 6.8 pg/mL,[1],78%
same,women with free testosterone level below 15 pg/mL,[1],97%
same,women with total testosterone levels in excess of 80 ng/dL,[1],73%
same,bioavailability,[1]; women with bioavailable testosterone level below 12.7 ng/dL,68%
same,bioavailability,[1]; women with bioavailable testosterone level below 35 ng/dL,97%
same,"sexual function, mood and well-being in comparison to conjugated equine estrogen alone",[2],"improved sexual function, mood and well-being"
same,K (binding affinity constant for SHBG),[3],1600 10^6 Liter/mole
same,mean increase in free serum testosterone lower in oral estrogen group than other two groups,[4],approximately 40%
same,mean increase in total serum testosterone greater in oral estrogen group than other two groups,[4]; time-averaged change from baseline,approximately 30%
same,concentration at 3.5 day,"[4]; other: transdermal patch, with Transdermal E2 0.1 mg/day, n=12, read-out: Changes in Free T",0.0042 ± 0.0007 ng/mL
same,concentration at 3.5 day,"[4]; other: transdermal patch, with Transdermal E2 0.1 mg/day, n=12, read-out: Changes in Total T",0.536 ± 0.072 ng/mL
same,concentration at 3.5 day,"[4]; other: transdermal patch, 300 mcg/day, No ERT, n=19, 3.5 day application, read-out: Changes in Total T",0.572 ± 0.044 ng/mL
same,concentration at 3.5 day,"[4]; other: transdermal patch, 300 mcg/day, No ERT, n=19, read-out: Changes in Free T",0.0046 ± 0.0004 ng/mL
same,concentration at 3.5 day,"[4]; po, with Oral CEE 1.25 mg/day, n=13, read-out: Changes in Free T",0.00256 ± 0.0003 ng/mL
same,concentration at 3.5 day,"[4]; po, with Oral CEE 1.25 mg/day, n=13, read-out: Changes in Total T",0.708 ± 0.096 ng/mL
same,Predicted Changes in Total Testosterone,[5]; [7],9 ng/dL
same,Predicted Changes in Total Testosterone,[5]; [8],12 ng/dL
same,Predicted Changes in Total Testosterone,[5]; [9],14 ng/dL
same,Predicted Changes in Total Testosterone,[5]; [10],23 ng/dL
same,Predicted Changes in Total Testosterone,[5]; [11],37 ng/dL
same,Predicted Changes in Total Testosterone,[5]; [12],49 ng/dL
same,Predicted Changes in Total Testosterone,[5]; [13],55 ng/dL
same,Predicted Changes in Total Testosterone,[5]; [14],21 ng/dL
same,Predicted Changes in Total Testosterone,[5]; [15],31 ng/dL
same,Predicted Changes in Total Testosterone,[5]; [16],35 ng/dL
same,Predicted Changes in Total Testosterone,[5]; [17],57 ng/dL
same,Predicted Changes in Total Testosterone,[5]; [18],92 ng/dL
same,Predicted Changes in Total Testosterone,[5]; [19],123 ng/dL
same,Predicted Changes in Total Testosterone,[5]; [20],137 ng/dL
same,Predicted Changes in Total Testosterone,[5]; [21],43 ng/dL
same,Predicted Changes in Total Testosterone,[5]; [22],61 ng/dL
same,Predicted Changes in Total Testosterone,[5]; [23],69 ng/dL
same,Predicted Changes in Total Testosterone,[5]; [24],113 ng/dL
same,Predicted Changes in Total Testosterone,[5]; [25],184 ng/dL
same,Predicted Changes in Total Testosterone,[5]; [26],245 ng/dL
same,Predicted Changes in Total Testosterone,[5]; [27],273 ng/dL
same,Predicted Changes in Total Testosterone,[5]; [28],85 ng/dL
same,Predicted Changes in Total Testosterone,[5]; [29],123 ng/dL
same,Predicted Changes in Total Testosterone,[5]; [30],139 ng/dL
same,Predicted Changes in Total Testosterone,[5]; [31],226 ng/dL
same,Predicted Changes in Total Testosterone,[5]; [32],128 ng/dL
same,Predicted Changes in Total Testosterone,[5]; [33],184 ng/dL
same,Predicted Changes in Total Testosterone,[5]; [34],208 ng/dL
same,Predicted Changes in Total Testosterone,[5]; [35],339 ng/dL
same,Predicted Changes in Total Testosterone,[5]; [36],553 ng/dL
same,Predicted Changes in Total Testosterone,[5]; [37],736 ng/dL
same,Predicted Changes in Total Testosterone,[5]; [38],820 ng/dL
same,concentration at 3.5 day,[5]; 1313 mcg/day,3.68 ng/mL
same,concentration at 3.5 day,[5]; 1553 mcg/day,4.9 ng/mL
same,concentration at 3.5 day,[5]; 1656 mcg/day,5.47 ng/mL
same,concentration at 3.5 day,[5]; 2484 mcg/day,8.2 ng/mL
same,Estimated Delivery Rate,[6]; [7],55 µg/day
same,Estimated Delivery Rate,[6]; [8],69 µg/day
same,Estimated Delivery Rate,[6]; [9],74 µg/day
same,Estimated Delivery Rate,[6]; [10],98 µg/day
same,Estimated Delivery Rate,[6]; [11],131 µg/day
same,Estimated Delivery Rate,[6]; [12],155 µg/day
same,Estimated Delivery Rate,[6]; [13],166 µg/day
same,Estimated Delivery Rate,[6]; [14],139 µg/day
same,Estimated Delivery Rate,[6]; [15],172 µg/day
same,Estimated Delivery Rate,[6]; [16],185 µg/day
same,Estimated Delivery Rate,[6]; [17],246 µg/day
same,Estimated Delivery Rate,[6]; [18],328 µg/day
same,Estimated Delivery Rate,[6]; [19],388 µg/day
same,Estimated Delivery Rate,[6]; [20],414 µg/day
same,Estimated Delivery Rate,[6]; [21],277 µg/day
same,Estimated Delivery Rate,[6]; [22],344 µg/day
same,Estimated Delivery Rate,[6]; [23],369 µg/day
same,Estimated Delivery Rate,[6]; [24],492 µg/day
same,Estimated Delivery Rate,[6]; [25],656 µg/day
same,Estimated Delivery Rate,[6]; [26],111 µg/day
same,Estimated Delivery Rate,[6]; [27],828 µg/day
same,Estimated Delivery Rate,[6]; [28],554 µg/day
same,Estimated Delivery Rate,[6]; [29],687 µg/day
same,Estimated Delivery Rate,[6]; [30],739 µg/day
same,Estimated Delivery Rate,[6]; [31],985 µg/day
same,Estimated Delivery Rate,"[6]; Change in FT 10 pg/mL, SHBG 400 nmol/L",1313 µg/day
same,Estimated Delivery Rate,"[6]; Change in FT 10 pg/mL, SHBG 600 nmol/L",1553 µg/day
same,Estimated Delivery Rate,"[6]; Change in FT 10 pg/mL, SHBG 700 nmol/L",1656 µg/day
same,Estimated Delivery Rate,[6]; [32],831 µg/day
same,Estimated Delivery Rate,[6]; [33],1031 µg/day
same,Estimated Delivery Rate,[6]; [34],1108 µg/day
same,Estimated Delivery Rate,[6]; [35],1477 µg/day
same,Estimated Delivery Rate,[6]; [36],1969 µg/day
same,Estimated Delivery Rate,[6]; [37],2330 µg/day
same,Estimated Delivery Rate,[6]; [38],2484 µg/day
